Marks after values point to notes of the source that are not given here.
Assays:
ADC AVP0458-TCO-MMAE = test: Triggered drug (MMAE) release from ADC in 50% mouse plasma, HPLC-SIM-MS; settings: for MMAE release from ADC AVP0458-TCO-MMAE, Release (%) / MMAE release level, in words: 50% mouse plasma, 37° C.; for MMAE release level, in words: after 24h incubation
Description: In a 1.5 mL vial, the following was combined: 650 μL mouse plasma, 600 μL PBS, 20 μL ADC (1.62 μg/μL in PBS) and 7.5 μL d8-MMAE solution (0.167 μg/μL, internal standard). Next, aliquots of 20 μL were prepared to which 5.2 μL of a tetrazine solution (0.25 mM in 1:1 DMSO/H2O) was added and the solution was incubated at 37° C. At various times, 100 μL of cold MeCN was added to the aliquot and the mixture was vortexed, stored at 4° C. for 30 min. and centrifuged. 20 μL of supernatant was taken and combined with 100 μL of 1% formic acid (aq) solution. This sample was analysed with HPLC-SIM-MS to quantify the ratio of free MMAE and d8-MMAE, which is a measure of the release yield.

[1] = Triggered release of Construct-A from TCO trigger, HPLC-MS/PDA
Description: At the specified time point, the sample was analyzed by HPLC-MS/PDA, and the release yield was determined from the observed amounts of IEDDA adducts, elimination product, and/or released Construct. In case the release was not complete, the sample was incubated at 37° C. for additional time and analyzed once again.

[2] = Second-order rate constant of the IEDDA reaction with TCO 3.2, stopped-flow UV-Vis, pseudo first-order conditions; assay type: physicochemical; settings: 25% MeCN/PBS at 20° C.; mean ± SD (n = 5)
Description: (§1) The second-order rate constant of the IEDDA reaction between model TCO 3.2 and activators 2.7 or 2.8 in MeCN at 20° C. was determined (n=1) by UV-Vis spectrometry under second-order conditions. A cuvette was filled with a solution of activator (3 mL 0.083 mM in MeCN), and equilibrated at 20° C. Next, a solution of TCO 3.2 (10.0 μL, 25 mM in DMSO) was added. The absorption at 540 nm was measured every second in a time course experiment. From the decay of this absorption, the conversion x was calculated. The second-order rate constant k2 was determined from the slope of the curve of a plot of 1/c-1/c0 versus time. The second-order rate constant of the IEDDA reaction between model TCO 3.2 and activators 2.7, 2.8, 2.14, 2.16, or 2.17 in 25% MeCN/PBS at 20° C. was determined (n=5) by stopped-flow UV-Vis spectrometry under pseudo first-order conditions. Tetrazine solutions (0.25 mM in 25% MeCN/PBS) and TCO 3.2 (3.45 mM in 25% MeCN/PBS) were mixed in a volume ratio of 1:1, resulting in a concentration of 0.125 mM and 1.73 mM, respectively. The absorption at 520 nm was measured every 50 ms, and from the decay of this absorption, the pseudo first-order rate constant k1′ was determined by a nonlinear Simplex regression analysis of the data points using BioKine software. The second-order rate constant k2 was calculated: k2=k1′/c,TCO. As expected for a cycloaddition reaction, the reactivity in PBS is much higher than in MeCN, and importantly the tetrazines of the invention are at least 1 order of magnitude more reactive than the known and high-releasing 3,6-bismethyl-tetrazine (2.17), while giving similar release yields (see Example 7).

[3] = Second-order rate constant of the IEDDA reaction with TCO 3.2, UV-Vis under second-order conditions in MeCN; assay type: physicochemical; settings: MeCN at 20° C.; n = 1
Description: as §1, with “As expected for a cycloaddition reaction, the reactivity in PBS is much higher than in MeCN, and importantly the tetrazines of the invention are at least 1 order of magnitude more reactive than the known and high-releasing 3,6-bismethyl-tetrazine (2.17), while giving similar release yields (see Example 7).” left out

[4] = Activator stability in PBS at rt (UV decay at 520 nm); assay type: physicochemical; settings: mean ± SD (n = 3)
Description: The assessment of activator stability was performed in PBS at rt. Solutions in DMSO (2.5 mM, 20 μL) were diluted with PBS (3.00 mL), filtered, and incubated at rt. The decrease of the absorption band at 520 nm was monitored using UV spectroscopy.

[5] = Cell proliferation assay (MTT); assay type: cell-based; settings: human, 3 days incubation, mean ± SEM (n = 6), read-out: LS174T cell viability (%); for viability at 72 h, 0.01 μM: 0.01 μM activator; for viability at 72 h, 0.1 μM: 0.1 μM activator; for viability at 72 h, 1 μM: 1 μM activator
Description: The human colon carcinoma LS174T cell line was obtained from the American Type Culture Collection and cultured in RPMI-1640 medium supplemented with 2 mM glutamine and 10% heat inactivated fetal calf serum. Twenty-four hours prior to the experiment, the cells were plated in 96-well plates at a 5000 cells/well density. The cells were then incubated with serial dilutions (10 nM-1 μM; n=6) of activators 2.7, 2.8, 2.14, 2.16, 2.17, 2.18 and 2.19 in culture medium for 72h at 37° C. The % cell proliferation was assessed by an MTT assay, in comparison to cells incubated in culture medium without activator. No toxicity was observed when the LS174T cells were incubated with the tested activators (and possible metabolites formed in the presence of serum) for 3-days at a 0.01-1 μM activator concentration.

LS174T xenografts [6] = test: MMAE measurement in tumors; assay type: in vivo, mice
Description: Female nude Balb/C mice were subcutaneously inoculated ca. 1×10^6 LS174T cells in the hind limb. Biodistribution studies started when the tumors reached 0.1-0.2 cm^3 size. Experiments were carried out to evaluate the reactivity between the TCO Trigger on tumor-bound ADC and activators 2.7, 2.8, 2.14 and 2.16 in LS174T xenografts, as previously performed for other activators [Rossin et al Nature Communications 2018, 9, 1484]. The activators were administered at a 20- to 100-lower dose than that used in previous activation and therapy studies (ca. 0.335 mmol/kg). […] Groups of tumor bearing mice (n=4) were injected with ^125I-labeled ADC (2 mg/kg) followed 48 h later by the activators (dose 1×: ca. 3.3 μmol/kg; dose 5×: ca. 16.7 μmol/kg) and, after 1 h, by [^111In]In-2.20 (ca. 0.33 μmol/kg). One group was injected with the same amount of ^125I-labeled ADC followed only by ^111In-2.20 49 h later. One group was injected only with ^111In-2.20 (non-specific probe binding). All mice were euthanized 23 h post-probe injection and the ^125I and ^111In uptakes in tumors were measured by γ-counting.
The concentration of MMAE released in tumors was measured as previously reported [Rossin et al Nature Communications 2018, 9, 1484]. […] For this reason, activator 2.16 was selected for a therapy study in combination with the click-cleavable ADC. At the doses of tc-ADC (4 mg/kg) and 2.16 (dose 10×; 33.5 μmol/kg) used for therapy study, a high level of 339±45 nM free MMAE was detected in tumors.

LS174T xenografts [7] = test: Therapy study in mice with LS174T xenografts; assay type: in vivo
Description: Groups of 10 female nude Balb/C mice were s.c. inoculated ca. 1×10^6 LS174T cells in the hindlimb and the therapy study started when the tumors became palpable (5-11 days after tumor cell inoculation). One group was administered four cycles (one cycle every 4 days) of tc-ADC (ca. 4 mg/kg) followed by activator 2.16 (ca. 33.5 μmol/kg) 48 later. Control groups received four cycles of ADC alone, activator alone, or vehicle. Tumor sizes and body weights were measured 2-3 times per week. […] On the contrary, all control mice were euthanized within 3 weeks from the beginning of the treatment due to large tumor size (>1.5 gr) or poor health conditions with a 15.5-17.5 days median survival. Overall, the repeated treatments were tolerated well by the mice, with no overt signs of hematological toxicity that could be attributed to the use of ADC and activator, either in combination or alone.

[8] = 2 min after reaction with activator

Nc1cccnc1-c1nnc(-c2ncccc2N)nn1 [2.1, 2,2′-(1,2,4,5-Tetrazine-3,6-diyl)bis(pyridin-3-amine)]
MMAE release from ADC AVP0458-TCO-MMAE, Release (%) (ADC AVP0458-TCO-MMAE; 24 h, mean ± SD (n = 3)): 32.1 ± 0.7^b %

CC(=O)Nc1cccnc1-c1nnc(-c2ncccc2NC(C)=O)nn1 [2.2, N,N′-(2,2′-(1,2,4,5-Tetrazine-3,6-diyl)bis(pyridine-3,2-diyl))diacetamide]
MMAE release from ADC AVP0458-TCO-MMAE, Release (%) (ADC AVP0458-TCO-MMAE; 24 h, mean ± SD (n = 3)): 79.3 ± 0.4% | Construct release % ([1]; TCO 3.11, doxorubicin, 18 h, 37° C.): 18 h: 74% | Construct release % ([1]; TCO 3.11, doxorubicin, 42 h, 37° C.): 42 h: 81% | Construct release % ([1]; TCO 3.11, released construct doxorubicin, 5 min): 5 min: 4% | Construct release % ([1]; TCO 3.23, released construct dimethylamine, 5 min): 5 min: 100% | Construct release % ([1]; TCO 3.32, released construct dimethylamine, 5 min): 5 min: 98%

Nc1cnccc1-c1nnc(-c2ccncc2N)nn1 [2.3, 4,4′-(1,2,4,5-Tetrazine-3,6-diyl)bis(pyridin-3-amine)]
MMAE release from ADC AVP0458-TCO-MMAE, Release (%) (ADC AVP0458-TCO-MMAE; 24 h, mean ± SD (n = 3)): 88.5 ± 0.1%

CC(=O)Nc1cnccc1-c1nnc(-c2ccncc2NC(C)=O)nn1 [2.4, N,N′-(4,4′-(1,2,4,5-Tetrazine-3,6-diyl)bis(pyridine-4,3-diyl))diacetamide]
MMAE release from ADC AVP0458-TCO-MMAE, Release (%) (ADC AVP0458-TCO-MMAE; 24 h, mean ± SD (n = 3)): 96.0 ± 0.3%

Oc1cnccc1-c1nnc(-c2ccncc2O)nn1 [2.8, 4,4′-(1,2,4,5-Tetrazine-3,6-diyl)bis(pyridin-3-ol)]
Calculated k2 values for the reaction between tetrazine activators and TCO 3.2 in PBS [2]: 270 ± 11 M⁻¹ s⁻¹ | Calculated k2 values for the reaction between tetrazine activators and TCO 3.2 in MeCN [3]: 10 M⁻¹ s⁻¹ | half-life at 16.6 µM [4]: 6.5 ± 0.6 h | MMAE release from ADC AVP0458-TCO-MMAE, Release (%) (ADC AVP0458-TCO-MMAE; [8]): 48.7% | MMAE release from ADC AVP0458-TCO-MMAE, Release (%) (ADC AVP0458-TCO-MMAE; 10 min): 83.4% | MMAE release from ADC AVP0458-TCO-MMAE, Release (%) (ADC AVP0458-TCO-MMAE; 1 h): 92.7% | MMAE release from ADC AVP0458-TCO-MMAE, Release (%) (ADC AVP0458-TCO-MMAE; 5 h): 93.6% | MMAE release from ADC AVP0458-TCO-MMAE, Release (%) (ADC AVP0458-TCO-MMAE; 24 h, mean ± SD (n = 3)): 94.3 ± 1.3% | MMAE release level, in words (ADC AVP0458-TCO-MMAE): as high as that obtained with the less reactive 2.17 | MMAE release speed, in words (ADC AVP0458-TCO-MMAE; compared with 2.17): faster | viability at 72 h, 0.01 μM [5]: 96.9 ± 3.6% | viability at 72 h, 0.1 μM [5]: 98.4 ± 3.6% | viability at 72 h, 1 μM [5]: 93.9 ± 5.2%

O=C(CCCC(=O)Nc1cnccc1-c1nnc(-c2ccncc2NC(=O)CCCC(=O)NCCOCCOCCOCCOCCOCCOCCOCCOCCOCCO)nn1)NCCOCCOCCOCCOCCOCCOCCOCCOCCOCCO [2.16, N^1,N^1′-(4,4′-(1,2,4,5-Tetrazine-3,6-diyl)bis(pyridine-4,3-diyl))bis(N^5-(29-hydroxy-3,6,9,12,15,18,21,24,27-nonaoxanonacosyl)glutaramide)]
Calculated k2 values for the reaction between tetrazine activators and TCO 3.2 in PBS [2]: 519 ± 12 M⁻¹ s⁻¹ | half-life at 16.6 µM [4]: 4.2 ± 0.1 h | MMAE release from ADC AVP0458-TCO-MMAE, Release (%) (ADC AVP0458-TCO-MMAE; [8]): 1.9% | MMAE release from ADC AVP0458-TCO-MMAE, Release (%) (ADC AVP0458-TCO-MMAE; 10 min): 19.4% | MMAE release from ADC AVP0458-TCO-MMAE, Release (%) (ADC AVP0458-TCO-MMAE; 1 h): 70.7% | MMAE release from ADC AVP0458-TCO-MMAE, Release (%) (ADC AVP0458-TCO-MMAE; 5 h): 82.8% | MMAE release from ADC AVP0458-TCO-MMAE, Release (%) (ADC AVP0458-TCO-MMAE; 24 h, mean ± SD (n = 3)): 95.6 ± 0.6% | MMAE release level, in words (ADC AVP0458-TCO-MMAE): as high as that obtained with the less reactive 2.17 | viability at 72 h, 0.01 μM [5]: 105 ± 7.4% | viability at 72 h, 0.1 μM [5]: 96.9 ± 3% | viability at 72 h, 1 μM [5]: 93.9 ± 2.8% | MMAE release in tumors, comparison of activators (LS174T xenografts [6]; 5× dose of activator): significantly higher release | free MMAE in tumors, comparison of activators (LS174T xenografts [6]; 24 h after administration of activator at dose 1×): No difference | time for which growth of LS174T tumors was completely inhibited (LS174T xenografts [7]; four cycles of tc-ADC (ca. 4 mg/kg) followed by activator 2.16 (ca. 33.5 μmol/kg) 48 later): over 3 weeks | median overall survival (LS174T xenografts [7]; four cycles, one cycle every 4 days, treated group: tc-ADC ca. 4 mg/kg + 2.16 ca. 33.5 μmol/kg, controls: ADC alone, activator alone, or vehicle): 42 days

Cc1nnc(C)nn1 [2.17, 3,6-bismethyl-tetrazine, reference compound]
viability at 72 h, 0.01 μM [5]: 90.2 ± 4.5% | viability at 72 h, 0.1 μM [5]: 87.9 ± 6.4% | viability at 72 h, 1 μM [5]: 85.7 ± 7.4%

c1ccc(-c2nnc(-c3ccccn3)nn2)nc1 [2.18, 3,6-bis(2-pyridinyl)-tetrazine, reference compound]
viability at 72 h, 0.01 μM [5]: 101 ± 3% | viability at 72 h, 0.1 μM [5]: 101 ± 2.8% | viability at 72 h, 1 μM [5]: 102 ± 3.6%

c1cc(-c2nnc(-c3ccncc3)nn2)ccn1 [2.19, 3,6-bis(4-pyridinyl)-tetrazine, reference compound]
viability at 72 h, 0.01 μM [5]: 87 ± 2.6% | viability at 72 h, 0.1 μM [5]: 88.7 ± 2.5% | viability at 72 h, 1 μM [5]: 91.3 ± 3%

Source: patent US20220356169A1, “TETRAZINES FOR HIGH CLICK RELEASE SPEED AND YIELD” (priority 2019, published 2022)
